Measured values reported in ChEMBL document CHEMBL4325844, “Development of 2-amino-4-phenylthiazole analogues to disrupt myeloid differentiation factor 88 and prevent inflammatory responses in acute lung injury” (Eur J Med Chem, 2019).
The source made the active and inactive calls. No cut-off for these calls is given here.

Experiments:
[1] = system: Peritoneal macrophage; assay: Antiinflammatory activity in ICR mouse primary peritoneal macrophages assessed as inhibition of LPS-induced IL-6 production at 20 uM preincubated for 60 mins followed by LPS stimulation and measured after 24 hrs by ELISA relative to control; type: functional
[2] = system: Peritoneal macrophage; assay: Antiinflammatory activity in ICR mouse primary peritoneal macrophages assessed as inhibition of LPS-induced TNFalpha production at 20 uM preincubated for 60 mins followed by LPS stimulation and measured after 24 hrs by ELISA relative to control; type: functional
[3] = system: Mus musculus; assay: Antiinflammatory activity in LPS-induced C57/BL6 mouse model of acute lung injury assessed as reduction in TNFalpha level in BALF at 10 mg/kg, ip pretreated for 30 mins followed by LPS challenge measured after 6 hrs by ELISA; type: functional, organism-based
[4] = system: Mus musculus; assay: Antiinflammatory activity in LPS-induced C57/BL6 mouse model of acute lung injury assessed as reduction in lung wet/dry ratio at 10 mg/kg, ip pretreated for 30 mins followed by LPS challenge measured after 6 hrs; type: functional, organism-based
[5] = system: Peritoneal macrophage; assay: Antiinflammatory activity in ICR mouse primary peritoneal macrophages assessed as inhibition of LPS-induced IL-6 production preincubated for 2 hrs followed by LPS stimulation and measured after 22 hrs by ELISA; type: functional, cell-based
[6] = biological target: T1, Myeloid differentiation primary response protein MyD88 (Homo sapiens, UniProt Q99836); assay: Inhibition of LPS-induced HA-tagged MyD88 (unknown origin) interaction with FLAG-tagged MyD88 (unknown origin) expressed in HEK293 cells at 20 uM after 48 hrs by co-immunoprecipitation method; type: cell-based
T1 sequence (Q99836 whole entry): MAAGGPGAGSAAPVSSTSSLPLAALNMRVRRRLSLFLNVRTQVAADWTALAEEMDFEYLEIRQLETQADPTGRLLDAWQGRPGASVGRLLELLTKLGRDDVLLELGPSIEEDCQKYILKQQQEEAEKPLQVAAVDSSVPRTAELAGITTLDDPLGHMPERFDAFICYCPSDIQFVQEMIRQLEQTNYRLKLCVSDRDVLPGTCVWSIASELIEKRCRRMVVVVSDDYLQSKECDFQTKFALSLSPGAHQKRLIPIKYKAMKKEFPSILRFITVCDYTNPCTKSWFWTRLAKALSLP

[7] = system: Mus musculus; assay: Antiinflammatory activity in LPS-induced C57/BL6 mouse model of acute lung injury assessed as reduction in IL6 level in BALF at 10 mg/kg, ip pretreated for 30 mins followed by LPS challenge measured after 6 hrs by ELISA; type: functional, organism-based
[8] = biological target: Myeloid differentiation primary response protein MyD88 (Mus musculus) (UniProt P22366); assay: Inhibition of MyD88 in ICR mouse primary peritoneal macrophages assessed as reduction in LPS-induced JNK phosphorylation at 20 uM preincubated for 30 mins followed by LPS-stimulation and measured after 20 mins by Western blot analysis
Sequence of Myeloid differentiation primary response protein MyD88 (Mus musculus) (P22366 whole entry, the tested form may be a part): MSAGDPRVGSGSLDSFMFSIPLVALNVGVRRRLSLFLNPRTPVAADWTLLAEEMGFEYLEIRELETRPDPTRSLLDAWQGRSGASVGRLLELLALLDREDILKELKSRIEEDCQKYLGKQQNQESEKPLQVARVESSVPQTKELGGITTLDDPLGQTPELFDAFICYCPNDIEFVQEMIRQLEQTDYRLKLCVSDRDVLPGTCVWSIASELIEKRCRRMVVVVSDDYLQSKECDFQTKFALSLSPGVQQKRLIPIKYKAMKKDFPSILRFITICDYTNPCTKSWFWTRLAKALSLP

[9] = biological target: Myeloid differentiation primary response protein MyD88 (Mus musculus) (UniProt P22366); assay: Inhibition of MyD88 in ICR mouse primary peritoneal macrophages assessed as reduction in LPS-induced ERK phosphorylation at 20 uM preincubated for 30 mins followed by LPS-stimulation and measured after 20 mins by Western blot analysis
[10] = biological target: T1, Myeloid differentiation primary response protein MyD88; assay: Binding affinity to recombinant human MyD88 TIR domain (157 to 296 residues) expressed in Escherichia coli BL21(DE3) by surface plasmon resonance analysis
[11] = biological target: Myeloid differentiation primary response protein MyD88 (Mus musculus) (UniProt P22366); assay: Inhibition of MyD88 in ICR mouse primary peritoneal macrophages assessed as reduction in LPS-induced p38 MAPK phosphorylation at 20 uM preincubated for 30 mins followed by LPS-stimulation and measured after 20 mins by Western blot analysis
[12] = system: Mus musculus; assay: Antiinflammatory activity in LPS-induced C57/BL6 mouse model of acute lung injury assessed as reduction in IL6 level in serum at 10 mg/kg, ip pretreated for 30 mins followed by LPS challenge measured after 6 hrs by ELISA; type: functional, organism-based
[13] = system: Mus musculus; assay: Antiinflammatory activity in LPS-induced C57/BL6 mouse model of acute lung injury assessed as reduction in TNFalpha level in serum at 10 mg/kg, ip pretreated for 30 mins followed by LPS challenge measured after 6 hrs by ELISA; type: functional, organism-based
[14] = system: Peritoneal macrophage; assay: Antiinflammatory activity in ICR mouse primary peritoneal macrophages assessed as inhibition of LPS-induced TNFalpha production preincubated for 2 hrs followed by LPS stimulation and measured after 22 hrs by ELISA; type: functional, cell-based
[15] = Cytotoxicity against rat H9c2 cells assessed as cell viability at 20 uM after 24 hrs by MTT assay relative to control; type: cell-based; conditions: read-out: Activity
[16] = Cytotoxicity against rat NRK cells assessed as cell viability at 20 uM after 24 hrs by MTT assay relative to control; type: cell-based; conditions: read-out: Activity
[17] = Cytotoxicity against ICR mouse primary peritoneal macrophages assessed as cell viability at 20 uM after 24 hrs by MTT assay relative to control; type: cell-based, Peritoneal macrophage; conditions: read-out: Activity

Row | Compound | inhibition at 20 µM [1] | inhibition at 20 µM [2] | other results
1 | O=C(CCN1CCN(CCc2ccccc2)CC1)Nc1nc(-c2ccccc2)cs1 | 27.4% | 9.1% | 
2 | O=C(CCN1CCN(Cc2cccc([N+](=O)[O-])c2)CC1)Nc1nc(C2CCC2)cs1 | 66.3% | 61.4% | 
3 | O=C(CCN1CCN(Cc2cccc([N+](=O)[O-])c2)CC1)Nc1nc(-c2ccccc2)cs1 | 81.5% | 64.2% | 
4 | COc1ccc(-c2csc(NC(=O)CCN3CCN(Cc4cccc([N+](=O)[O-])c4)CC3)n2)cc1 | 82% | 73.8% | 
5 | O=C(CCN1CCN(S(=O)(=O)c2ccc([N+](=O)[O-])cc2)CC1)Nc1nc(-c2ccccc2)cs1 | 40.6% | 38.6% | 
6 | O=C(CCN1CCN(Cc2ccc(Cl)cc2)CC1)Nc1nc(-c2ccccc2)cs1 | 63.4% | 52.8% | 
7 | O=C(CCN1CCN(S(=O)(=O)c2cc(Cl)cc(Cl)c2)CC1)Nc1nc(-c2ccccc2)cs1 | 55.6% | 49.1% | 
8 | Cc1ccc(-c2csc(NC(=O)CCN3CCN(Cc4cccc([N+](=O)[O-])c4)CC3)n2)cc1 | 75.1% | 79% | 
9 | Cc1ccc(CN2CCN(CCC(=O)Nc3nc(-c4ccccc4)cs3)CC2)cc1 | 67.6% | 27.1% | 
10 | O=C(CCN1CCN(Cc2c(Cl)cccc2Cl)CC1)Nc1nc(-c2ccccc2)cs1 | 73.8% | 37.1% | 
11 | O=C(CCN1CCN(S(=O)(=O)c2ccc(C(F)(F)F)cc2)CC1)Nc1nc(-c2ccccc2)cs1 |  | 2.54% | inhibition [1]: inactive
12 | N#Cc1ccc(CN2CCN(CCC(=O)Nc3nc(-c4ccccc4)cs3)CC2)cc1 | 67.3% | 33.7% | 
13 | O=C(CCN1CCN(Cc2cccc(F)c2)CC1)Nc1nc(-c2ccccc2)cs1 | 68.5% | 40.5% | 
14 | COc1cc(CN2CCN(CCC(=O)Nc3nc(-c4ccccc4)cs3)CC2)cc(OC)c1 | 57% | 34.2% | 
15 | O=C(CCN1CCN(Cc2ccccc2)CC1)Nc1nc(-c2ccccc2)cs1 | 69.3% | 47% | Activity [3]: Active; Activity [4]: Active; IC50 [5]: 10.2 µM; inhibition [6]: Active; Activity [7]: Active; inhibition [8]: Active; inhibition [9]: Active; Ka [10]: 3340 M⁻¹ s⁻¹; Kd [10]: 180 µM; Kdiss [10]: 0.6 s⁻¹; inhibition [11]: Active; Activity [12]: Active; Activity [13]: Active; IC50 [14]: 11.9 µM
16 | O=C(CCN1CCN(Cc2cccc([N+](=O)[O-])c2)CC1)Nc1nc(-c2ccc(Cl)cc2)cs1 | 77.6% | 58.3% | 
17 | CN1CCN(CCC(=O)Nc2nc(-c3ccccc3)cs2)CC1 |  |  | inhibition [1]: inactive; inhibition [2]: inactive
18 | O=C(CCN1CCN(Cc2cccc(Cl)c2)CC1)Nc1nc(-c2ccccc2)cs1 | 74.5% | 48.8% | 
19 | O=C(CCN1CCN(Cc2cccc([N+](=O)[O-])c2)CC1)Nc1nc(-c2ccc(C3CCCCC3)cc2)cs1 | 28.5% | 19.8% | 
20 | O=C(CCN1CCN(Cc2cccc([N+](=O)[O-])c2)CC1)Nc1nc(-c2ccc(F)cc2)cs1 | 86.4% | 65.6% | 
21 | N#Cc1cccc(CN2CCN(CCC(=O)Nc3nc(-c4ccccc4)cs3)CC2)c1 | 78.3% | 52.3% | 
22 | Nc1ccc(CN2CCN(CCC(=O)Nc3nc(-c4ccccc4)cs3)CC2)cc1 | 45.8% | 10.1% | 
23 | O=C(CCN1CCN(Cc2cccc([N+](=O)[O-])c2)CC1)Nc1nc(-c2ccc(F)c(F)c2)cs1 | 86.7% | 61.8% | 
24 | CC(C)(C)c1ccc(CN2CCN(CCC(=O)Nc3nc(-c4ccccc4)cs3)CC2)cc1 | 51.8% | 12% | 

Row | Compound | inhibition at 20 µM [1] | inhibition at 20 µM [2] | other results
25 | O=C(CCN1CCN(Cc2cccc([N+](=O)[O-])c2)CC1)Nc1nc(-c2ccc(Br)cc2)cs1 | 81% | 71.9% | 
26 | O=C(CCN1CCN(S(=O)(=O)c2ccc(Cl)cc2)CC1)Nc1nc(-c2ccccc2)cs1 | 70.3% | 37.6% | 
27 | O=C(CCN1CCN(Cc2ccc3ccccc3c2)CC1)Nc1nc(-c2ccccc2)cs1 | 18.3% | 2.41% | 
28 | N#Cc1ccc(-c2csc(NC(=O)CCN3CCN(Cc4cccc([N+](=O)[O-])c4)CC3)n2)cc1 | 50.6% | 49.7% | 
29 | O=C(CCN1CCN(Cc2cccc([N+](=O)[O-])c2)CC1)Nc1nc(-c2cccc([N+](=O)[O-])c2)cs1 | 76.3% | 51.2% | 
30 | COc1cccc(CN2CCN(CCC(=O)Nc3nc(-c4ccccc4)cs3)CC2)c1 | 53.8% | 36.1% | 
31 | O=C(CCN1CCN(Cc2cccc([N+](=O)[O-])c2)CC1)Nc1nc(-c2ccc([N+](=O)[O-])cc2)cs1 | 58.8% | 32.4% | 
32 | Nc1cccc(CN2CCN(CCC(=O)Nc3nc(-c4ccccc4)cs3)CC2)c1 | 11.5% | 13.6% | 
33 | O=C(CCN1CCN(Cc2cccc([N+](=O)[O-])c2)CC1)Nc1nc(-c2ccco2)cs1 | 78.7% | 65.2% | 
34 | O=C(CCN1CCN(Cc2ccc(C(F)(F)F)cc2)CC1)Nc1nc(-c2ccccc2)cs1 | 69% | 55.3% | 
35 | O=C(CCN1CCN(Cc2ccc(F)cc2)CC1)Nc1nc(-c2ccccc2)cs1 | 70.9% | 47.9% | 
36 | COc1ccc(S(=O)(=O)N2CCN(CCC(=O)Nc3nc(-c4ccccc4)cs3)CC2)cc1OC | 49.5% | 37.2% | 
37 | COC(=O)c1csc(NC(=O)CCN2CCN(Cc3cccc([N+](=O)[O-])c3)CC2)n1 | 56.3% | 31.7% | 
38 | COc1ccc(CN2CCN(CCC(=O)Nc3nc(-c4ccccc4)cs3)CC2)cc1 | 75.3% | 40.2% | 
39 | CCOc1ccc(-c2csc(NC(=O)CCN3CCN(Cc4cccc([N+](=O)[O-])c4)CC3)n2)cc1 | 85.3% | 74.3% | 
40 | O=C(CCN1CCN(S(=O)(=O)c2ccccc2)CC1)Nc1nc(-c2ccccc2)cs1 | 29.9% | 17.6% | 
41 | O=C(CCN1CCN(Cc2ccc([N+](=O)[O-])cc2)CC1)Nc1nc(-c2ccccc2)cs1 | 76.8% | 56.7% | 
42 | COc1ccc(-c2csc(NC(=O)CCN3CCN(Cc4cccc([N+](=O)[O-])c4)CC3)n2)cc1OC | 90.2% | 87.6% | IC50 [5]: 3.15 µM; inhibition [5]: Dose-dependent effect; viability at 24 h, 20 µM [15]: > 80%; viability at 24 h, 20 µM [16]: > 80%; viability at 24 h, 20 µM [17]: > 80%; IC50 [14]: 1.77 µM; inhibition [14]: Dose-dependent effect
43 | O=C(CCN1CCN(S(=O)(=O)c2cccc(Cl)c2)CC1)Nc1nc(-c2ccccc2)cs1 | 61.1% | 32.8% | 
44 | O=C(CCN1CCN(Cc2cccc([N+](=O)[O-])c2)CC1)Nc1nc(-c2ccccc2Br)cs1 | 86.9% | 83.2% | IC50 [5]: 4.65 µM; inhibition [5]: Dose-dependent effect; viability at 24 h, 20 µM [15]: > 80%; viability at 24 h, 20 µM [16]: > 80%; viability at 24 h, 20 µM [17]: > 80%; IC50 [14]: 5.15 µM; inhibition [14]: Dose-dependent effect
45 | O=C(CCN1CCN(Cc2cccc([N+](=O)[O-])c2)CC1)Nc1nc2ccccc2s1 | 64.2% | 63.6% | 
46 | O=C(CCN1CCN(Cc2cccc([N+](=O)[O-])c2)CC1)Nc1nc(-c2cccc(Br)c2)cs1 | 73% | 52.5% | 
47 | COc1ccc(S(=O)(=O)N2CCN(CCC(=O)Nc3nc(-c4ccccc4)cs3)CC2)cc1 | 35.6% | 33.1% | 
